Test: xn = mol fraction of the nth substance listed
Settings: for electrical conductivity: frequency 0.001 MHz

O=C([O-])C1=NN(c2ccc(S(=O)(=O)[O-])cc2)C(=O)C1N=Nc1ccc(S(=O)(=O)[O-])cc1.[Na+].[Na+].[Na+] (centres undefined) + CCCC[N+](CCCC)(CCCC)Cc1ccccc1.[Cl-] + O
101.3 kPa
Settings	electrical conductivity, 298.15 K [S/m]	electrical conductivity, 308.15 K [S/m]	electrical conductivity, 318.15 K [S/m]	viscosity, 298.15 K [mPa·s]	viscosity, 308.15 K [mPa·s]	viscosity, 318.15 K [mPa·s]
x1 = 0.0001802, x2 = 1.802e-05	0.11	0.131	0.158	0.933	0.799	0.663
x1 = 0.0001803, x2 = 5.405e-05	0.119	0.142	0.182	0.951	0.818	0.68
x1 = 0.0001804, x2 = 9.008e-05	0.151	0.168	0.196	0.971	0.836	0.699
x1 = 0.0004504, x2 = 1.801e-05	0.176	0.226	0.28	0.956	0.818	0.68
x1 = 0.0004507, x2 = 5.403e-05	0.201	0.248	0.328	0.975	0.839	0.698
x1 = 0.000451, x2 = 9.005e-05	0.263	0.301	0.353	0.996	0.858	0.719
x1 = 0.0007205, x2 = 1.801e-05	0.245	0.299	0.384	0.975	0.836	0.695
x1 = 0.0007209, x2 = 5.402e-05	0.269	0.342	0.452	0.995	0.858	0.715
x1 = 0.0007213, x2 = 9.003e-05	0.369	0.419	0.478	1.019	0.878	0.738
x1 = 0.0009904, x2 = 1.8e-05	0.319	0.38	0.493	0.994	0.853	0.711
x1 = 0.000991, x2 = 5.4e-05	0.353	0.438	0.577	1.015	0.877	0.733
x1 = 0.0009916, x2 = 9e-05	0.469	0.524	0.603	1.039	0.897	0.756
x1 = 0.00126, x2 = 1.8e-05	0.398	0.476	0.609	1.011	0.869	0.725
x1 = 0.001261, x2 = 5.399e-05	0.435	0.546	0.716	1.034	0.895	0.749
x1 = 0.001262, x2 = 8.998e-05	0.582	0.654	0.763	1.06	0.917	0.774
x1 = 0.00153, x2 = 1.799e-05	0.472	0.571	0.735	1.028	0.884	0.738
x1 = 0.001531, x2 = 5.397e-05	0.511	0.651	0.852	1.052	0.913	0.764
x1 = 0.001532, x2 = 8.995e-05	0.702	0.78	0.902	1.081	0.938	0.792

CO + CCCC[n+]1ccc(C)cc1.F[B-](F)(F)F
Settings	viscosity [mPa·s]
298.15 K, 101 kPa, x1 = 1	0.538
